These are literature values, as cited in patent publication US12090135B2, “Neutral pH compositions of docetaxel and human serum albumin” (Zhuhai Beihai Biotech Co., Ltd., priority 2016, dated 2024).

“Also recorded” adds a separate entry of the source.

For data set [1], the system named is microtubule depolymerization.

Consider `CC(=O)O[C@@]12CO[C@@H]1C[C@H](O)[C@@]1(C)C(=O)[C@H](O)C3=C(C)[C@@H](OC(=O)[C@H](O)[C@@H](NC(=O)OC(C)(C)C)c4ccccc4)C[C@@](O)([C@@H](OC(=O)c4ccccc4)[C@H]21)C3(C)C` [Docetaxel], for which the Water solubility entry is recorded as “practically insoluble in water; also recorded: very poor water solubility”. The “in vitro binding to plasma proteins” value in the data set on plasma proteins (in three cancer patients) is recorded as “approximately 97%”. Further, in the data set with plasma proteins (in vitro studies, mainly to al-acid glycoprotein, albumin, and lipoproteins), the protein bound result is listed as “about 94%”. Moreover, the “Potency in inhibiting microtubule depolymerization relative to paclitaxel” value in data set [1] is recorded as “about twice as potent as paclitaxel”.
